Source: patent US9631001B2, “Peptide antagonists of the vasopressin-2 receptor” (COMMISSARIAT A L'ENERGIE ATOMIQUE ET AUX ENERGIES …, priority 2012, dated 2017)
Bridges are numbered along the chain shown (N, C = ends). Where no end group is shown, it is not given here.

Tests used:
[1] = molecular target: V2R (Homo sapiens, UniProt P30518); conditions: vaptans, background; cited from earlier work
[2] = molecular target: vasopressin V2 receptor subtype (V2R) (Homo sapiens, UniProt P30518); assay: 3H-AVP competition binding on V2R membranes; conditions: for Ki: Ki (nM ± SEM), binding affinity of the ligands for V2R, 3H-AVP competition, mean ± SEM; for V2R inhibition, 3H-AVP binding (FIG. 15): compared with U-Da2a
Method: Reaction mixtures contained 50 mM Tris-HCl, pH 7.4, 10 mM MgCl2 and 1 g/L BSA in a final volume of 100 μL. Plates were incubated for 3 h at room temperature. Binding reactions were stopped by filtration through a GF/C filter pre-soaked in 0.5% polyethyleneimine on a cell harvester ([sequence], Courtaboeuf, France) and plates were dried. […] A one-site inhibition mass action curve was fitted to inhibition binding data using Kaleidagraph (SYNERGY SOFTWARE, Reading, Pa., USA).

## Cc1nc2c([nH]1)-c1ccccc1N(C(=O)c1ccc(NC(=O)c3ccccc3-c3ccccc3)cc1)CC2 [Conivaptan]
[1]
  V2/V1a selectivity index: 0.15

## CCOc1ccc2c(c1)C1(CCC(OCCN3CCOCC3)CC1)C(=O)N2S(=O)(=O)c1ccc(C(=O)NC(C)(C)C)cc1OC (stereo not shown) [Satavaptan]
[1]
  V2/V1a selectivity index: 112

## CNLPVKPGPCNGFFSAFYYSQKTNKCHSFTYGGCKGNANRFSTIEKCRRTCVG (disulfide 1-51, 10-34, 26-47) [U-Da2a-delta4 N-ter]
[2]
  Ki: 1.57 ± 1.2 nM

## DTx-E-R55 (LQHRTFCKLPAEPGPCKASIPAFYYNWAAKKCQLFHYGGCKGNANRFSTIEKCRRACVG; listed as Dendroaspis polylepis) [reference compound]
[2]
  V2R inhibition, 3H-AVP binding (FIG. 15): not able to block V2R

## Dendrotoxin-K [DTx-K, reference compound]
[2]
  V2R inhibition, 3H-AVP binding (FIG. 15): no V2R inhibition

## RPKFCNLPVKPGPCNGFFSAFYYSQKTNKCHSFTYGGCKGNANRFSTIEKCRRTCVG (disulfide 5-55, 14-38, 30-51) [U-Da2a-S3K]
[2]
  Ki: 1.29 ± 0.34 nM

## SFCNLPVKPGPCNGFFSAFYYSQKTNKCHSFTYGGCKGNANRFSTIEKCRRTC (disulfide 3-53, 12-36, 28-49) [U-Da2a-delta2 N-ter/delta2 C-ter]
[2]
  Ki: 3.23 ± 2.31 nM
